According to patent US8124647B2 (priority 2002, dated 2012):

Key:
human androgen receptor [1] = biological target: T1, human androgen receptor (Homo sapiens, UniProt P10275); experiment: androgenic activity (EC50 and intrinsic activity), transactivation bioassay in CHO-AR-pMMTV-LUC cells (Table 4); format: cell-based; conditions: androgenic activity, read-out: ago EC50
T1 construct: expressed in transfected cells; host or cells: CHO cells, cell line CHO-AR-pMMTV-LUC 1G12-A5-CA
T1 sequence (P10275 1-920): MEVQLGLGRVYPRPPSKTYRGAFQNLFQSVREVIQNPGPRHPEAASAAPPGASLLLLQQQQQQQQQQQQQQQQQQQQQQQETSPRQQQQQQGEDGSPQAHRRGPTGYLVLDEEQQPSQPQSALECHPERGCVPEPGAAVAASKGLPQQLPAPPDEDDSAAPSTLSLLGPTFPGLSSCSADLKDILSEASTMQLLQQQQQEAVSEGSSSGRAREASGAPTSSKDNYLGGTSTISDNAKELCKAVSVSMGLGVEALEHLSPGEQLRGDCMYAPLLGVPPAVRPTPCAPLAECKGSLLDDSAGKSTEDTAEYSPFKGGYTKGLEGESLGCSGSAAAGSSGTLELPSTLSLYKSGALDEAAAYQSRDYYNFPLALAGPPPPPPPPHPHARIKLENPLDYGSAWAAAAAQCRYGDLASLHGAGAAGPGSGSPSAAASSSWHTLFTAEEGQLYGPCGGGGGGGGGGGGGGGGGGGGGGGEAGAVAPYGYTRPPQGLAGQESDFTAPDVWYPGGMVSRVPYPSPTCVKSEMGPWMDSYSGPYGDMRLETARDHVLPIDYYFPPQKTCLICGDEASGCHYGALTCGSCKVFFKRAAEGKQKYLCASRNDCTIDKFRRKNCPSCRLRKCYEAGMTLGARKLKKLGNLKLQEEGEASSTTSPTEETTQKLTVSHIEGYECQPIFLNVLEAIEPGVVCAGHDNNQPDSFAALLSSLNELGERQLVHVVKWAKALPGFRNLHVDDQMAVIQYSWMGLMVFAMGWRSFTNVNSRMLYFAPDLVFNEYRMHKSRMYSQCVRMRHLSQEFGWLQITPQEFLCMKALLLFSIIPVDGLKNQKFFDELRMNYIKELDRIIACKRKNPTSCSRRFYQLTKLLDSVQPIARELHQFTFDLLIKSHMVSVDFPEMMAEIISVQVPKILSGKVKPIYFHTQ
Method: (§1) Compounds were tested for their Androgen Receptor activity in a transactivation assay and in a binding assay.
(§2) The (anti-)androgenic activity of test compounds (EC50 and intrinsic activity) was determined in an in vitro bioassay of Chinese hamster ovary (CHO) cells stably transfected with the human androgen receptor expression plasmid and a reporter plasmid in which the MMTV-promoter is linked to the luciferase reporter gene. The cell-line CHO-AR-pMMTV-LUC 1G12-A5-CA is described in Schoonen et al. (2000), Journal of Steroid Biochemistry and Molecular Biology 74(4):213-222. The antiandrogenic activity of a test compound was determined by the inhibition of the transactivation via the androgen receptor of the enzyme luciferase in the presence of 1 nM DHT (5α-dihydrotestosterone, 17β-hydroxy-5α-androstan-3-one). Intrinsic activity of antiandrogenic activity was determined in the presence of the reference antiandrogen 2-Hydroxy-2-methyl-N-(4-nitro-3-trifluoromethyl-phenyl)-propionamide(Hydroxyflutamide), and set at 100%. For androgenic activity, maximal intrinsic activity in the presence of 100 nM DHT was set at 100%.

human androgen receptor [2] = biological target: T1, human androgen receptor; experiment: cell-based; conditions: in the presence of 1 nM DHT; for EC50: antiandrogenic activity, read-out: ant EC50
Method: as §1, §2

SMILES | EC50 (human androgen receptor [1]) [nM] | EC50 (human androgen receptor [2]) [nM] | ant efficacy (human androgen receptor [2]; reference antiandrogen Hydroxyflutamide set at 100%)
COc1ccc2c(Sc3ccccc3[N+](=O)[O-])cn(Cc3ccccn3)c2c1.Cl [Compound 10, 6-Methoxy-3-(2-nitro-phenylsulfanyl)-1-pyridin-2-ylmethyl-1H-indole monohydrochloride] | 5 to 100 | > 10000 | − (− <0.20)
CN(C)CCNC(=O)c1ccc2c(Sc3ccccc3[N+](=O)[O-])cn(Cc3cc(F)cc(F)c3)c2c1 [Compound 36] | 5 to 100 | > 10000 | 
COc1ccc2c(Sc3ccccc3[N+](=O)[O-])cn(Cc3ccc(Cl)c(C(F)(F)F)c3)c2c1 [Compound 76] | < 1000 | > 10000 | 
O=C(NCc1cccnc1)c1ccc2c(Sc3ccccc3[N+](=O)[O-])cn(Cc3cc(F)cc(F)c3)c2c1 [Compound 35] | 5 to 100 | > 10000 | 
COc1ccc2c(Sc3ccccc3[N+](=O)[O-])cn(Cc3ccccn3)c2c1 [Compound 9, 6-Methoxy-3-(2-nitro-phenylsulfanyl)-1-pyridin-2-ylmethyl-1H-indole] | < 5 | < 5 | 
Cc1cccc2c1c(Sc1ccccc1[N+](=O)[O-])cn2Cc1cc(F)cc(F)c1 [Compound 55] | 5 to 100 | > 10000 | 
COc1ccc2c(Sc3ccccc3[N+](=O)[O-])cn(Cc3ccccc3C)c2c1 [Compound 7] | 5 to 100 | > 10000 | 
CN(C)C(=O)c1ccc2c(Sc3ccccc3[N+](=O)[O-])cn(Cc3cc(F)cc(F)c3)c2c1 [Compound 49] | < 5 | > 10000 | 
COc1ccc2c(Sc3ccccc3[N+](=O)[O-])cn(Cc3cc(F)cc(F)c3)c2c1 [Compound 63, 1-(3,5-Difluoro-benzyl)-6-methoxy-3-(2-nitro-phenylsulfanyl)-1H-indole] | < 5 | > 10000 | 
COc1ccc2c(Sc3ccccc3C#N)cn(Cc3cc(F)cc(F)c3)c2c1 [Compound 20, 2-[1-(3,5-Difluoro-benzyl)-6-methoxy-1H-indol-3-ylsulfanyl]-benzonitrile] | 5 to 100 | > 10000 | 
O=[N+]([O-])c1ccccc1Sc1cn(Cc2ccccc2)c2ccccc12 [Compound 90] | < 1000 | > 10000 | 
COc1ccc2c(Sc3ccccc3[N+](=O)[O-])cn(Cc3cccc(OC(F)(F)F)c3)c2c1 [Compound 77] | 5 to 100 | > 10000 | 
CC(C)NC(=O)c1ccc2c(Sc3ccccc3[N+](=O)[O-])cn(Cc3cc(F)cc(F)c3)c2c1 [Compound 46] | 5 to 100 | 5 to 100 | 
COc1ccc2c(Sc3ccccc3[N+](=O)[O-])cn(CC3CCCCC3)c2c1 [Compound 89] | 5 to 100 | < 5 | 
COc1ccc2c(Sc3ccccc3[N+](=O)[O-])cn(CC3CCCCO3)c2c1 (stereo not drawn) [Compound 11] | 5 to 100 | > 10000 | 
COc1ccc2c(S(=O)(=O)c3ccccc3[N+](=O)[O-])cn(Cc3cc(F)cc(F)c3)c2c1 [Compound 62, 1-(3,5-Difluoro-benzyl)-6-methoxy-3-(2-nitro-benzenesulfonyl)-1H-indole] | < 5 | > 10000 | 
COc1ccc2c(Sc3ccccc3[N+](=O)[O-])cn(Cc3ccc(Cl)cc3)c2c1 [Compound 81] | < 1000 | < 5 | 
O=C(O)c1ccc2c(Sc3ccccc3[N+](=O)[O-])cn(Cc3cc(F)cc(F)c3)c2c1 [Compound 30, 1-(3,5-Difluoro-benzyl)-3-(2-nitro-phenylsulfanyl)-1H-indole-6-carboxylic acid] | < 1000 | > 10000 | 
COc1ccc2c(Sc3ccccc3C(N)=O)cn(Cc3cc(F)cc(F)c3)c2c1 [Compound 18, 2-[1-(3,5-Difluoro-benzyl)-6-methoxy-1H-indol-3-ylsulfanyl]-benzamide] | 5 to 100 | 5 to 100 | 
